Measured values published in PubChem BioAssay AID179 (DTP/NCI, 2004).
Several values for one entry are separate records, joined by “and”; a condition that tells them apart may be missing. Equal entries are not always repeated. Activity calls are given as the source filed them.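 Rule for the calls: active = compounds giving half or more protection of infected cells from virus-caused growth loss, again on retest; inactive = the rest.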

Tested on: CEM cells HIV-1 protection, formazan growth assay
Experiment: NCI AIDS Antiviral Assay
Conditions: for IC50: measured here: growth of uninfected CEM cells
Outline: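 CEM (human) cells, HIV-1 infected vs uninfected, 5-point dosing, formazan growth read-out. Retest threshold 50% protection.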

Structure (SMILES) | EC50 | IC50 | outcome
COc1cccc(NC(=O)CC(=O)N2N=C(C)C(N=Nc3ccc(S(=O)(=O)c4ccc(N=NC5C(=O)N(C(=O)CC(=O)Nc6cccc(OC)c6)N=C5C)cc4)cc3)C2=O)c1 (stereo not given) | 178 µM | > 200 µM | 
N#CCCC[Si]12OCCN(CCO1)CCO2 |  |  | inactive
CCOC(=O)NC(=O)c1cn(CCCCCCOC(=O)NCCCCCCNC(=O)OCCCCCCn2cc(C(=O)NC(=O)OCC)c(=O)[nH]c2=O)c(=O)[nH]c1=O |  |  | inactive
Cc1c(CN2CCOCC2)cc(C(C)C)c(O)c1CN1CCOCC1 | > 200 µM | > 200 µM | 
CN1C(=O)/C(=N/N(c2ccccc2)c2ccccc2)c2ccccc21 | > 200 µM | > 200 µM | 
OCC(O)COc1c(Cl)cc(Cl)cc1Cl (stereo not given) | > 251 µM | > 251 µM | 
CC1(CC(=O)OC(C#C[Si](C)(C)C)Cc2ccccc2)OCCO1 (stereo not given) | > 200 µM | 102 µM | 
O=C1NC2(CCCCC2)N=C2C(Cl)CCCC12Cl (stereo not given) | > 200 µM | > 200 µM | 
CC(=O)CC(OC(C)=O)C1=CCC2C(CC1C)OC(=O)C2C (stereo not given) | > 224 µM | 39.8 µM | 
O=C(/C=C/c1ccc(Cl)cc1)c1ccc(Cl)s1 | > 200 µM |  | 
C=C1CC[C@]2(C)C3CC[C@]4(C)C(C(C)CCC(=O)OC)CCC4[C@@H]3CC[C@@H]2C1 (stereo not given in full) | > 87.1 µM | > 87.1 µM | 
N#C/C=C\c1cccc(C#N)c1 | > 46.8 µM | > 46.8 µM | 
CCOP(=O)(O)Cc1c(Cl)c(Cl)c(CP(=O)(O)OCC)c(Cl)c1Cl | > 200 µM | 132 µM | 
Nc1ccn(CC2OCC(CO)O2)c(=O)n1 (stereo not given) | > 3470 µM | 2950 µM and 3020 µM | 
O=C(/C=C/c1cccs1)c1ccc(Cl)cc1 |  |  | inactive
CO[C@H]1C=CO[C@@]2(C)Oc3c(C)c(O)c4c(O)c(c(CN5CCN(C)CC5)c(O)c4c3C2=O)NC(=O)/C(C)=C\C=C[C@H](C)[C@H](O)C(C)[C@@H](O)C(C)[C@H](OC(C)=O)[C@@H]1C (stereo not given in full) |  |  | inactive

Structure (SMILES) | EC50 | IC50 | outcome
CCOC(=O)/C(=C\n1c(=S)[nH]c2cc(C)ccc21)C(=O)c1ccccc1 | > 100 µM | > 100 µM | 
O=C1C(Cl)=CC(=C2C=C(Cl)C(=O)C(Cl)=C2)C=C1Cl | > 200 µM | 42.7 µM | 
CC1=C2c3c(C)ccc4ccc(C)c(c34)C2(O)C(C)C1=O (stereo not given) | > 200 µM | > 200 µM | 
CCOP(=O)(O)C(Nc1ccc(N=Nc2ccccc2)cc1)c1ccc(C(Nc2ccc(N=Nc3ccccc3)cc2)P(=O)(O)OCC)cc1 (stereo not given) | > 81.3 µM | 30.2 µM | 
CC(C)(C)C(=O)OCC(COC(=O)C(C)(C)C)[N+](=O)[O-] |  |  | inactive
CN1CCC2c3c([nH]c4ccccc34)C(C)(C)OC2C1 (stereo not given) | > 200 µM | > 200 µM | 
C[C@]12CCCCC1(O)C[C@H](C(=O)O)CC2 (stereo not given in full) |  |  | inactive
CC(C)(C)NP(=O)(NC(C)(C)C)NC(C)(C)C | > 200 µM | 107 µM | 
Cc1ccc(/C=C2\N=C(N3CCOCC3)NC2=O)cc1 | > 200 µM | > 200 µM | 
CCOC(=O)C(CCC1OCCO1)C(C)=O (stereo not given) | > 200 µM | > 200 µM | 
CC1=NOC(=O)C12CC2 | > 200 µM | > 200 µM | 
Cc1[nH]nc2c1NC(=O)OC2C (stereo not given) | > 1480 µM | 1200 µM | 
CCS(=O)(=O)CCOP(=O)(c1ccccc1)c1ccccc1 |  |  | inactive
Cc1cc2ccc3c(c2oc1=O)[C@@H](OC(=O)C12CCC(C)(C(=O)O1)C2(C)C)[C@@H](OC(=O)C12CCC(C)(C(=O)O1)C2(C)C)C(C)(C)O3 (stereo not given in full) | 0.209 µM | 18.6 µM | 
O=S(O)CCCCSSCC(O)C(O)CSSCCCCS(=O)O (stereo not given) |  |  | inactive
O=C(O)c1ccc(S(=O)(=O)c2ccccc2[N+](=O)[O-])cc1 | > 200 µM | > 200 µM | 
